Reference: patent US20220348592A1, “FUSED HETEROCYCLIC DERIVATIVES” (Janssen Sciences Ireland Unlimited Company, priority 2019, published 2022)

Columns and labels:
HBV = experiment: Anti-HBV activity: intracellular HBV DNA by real-time PCR in HepG2.117 cell line; format: cell-based, Hepatitis B virus; details: Hepatitis B virus, 72 h; HepG2.117 cells, 3 days of treatment, intracellular HBV DNA by real-time PCR, mean value; read-out: HBV-AVE-HepG2.117 EC50 (μM, mean value)
How it was run: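 HepG2.117 cells, a Tet-off inducible HBV-producing line, induced to replicate HBV and then treated with serially diluted compound. After 3 days, intracellular HBV DNA quantified by real-time PCR with HBV-specific primers and probe.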

[1] = Cytotoxicity in HepG2.117 cells, ATPlite Luminescence Assay; format: cell-based, human; details: human, incubated for 3 days, mean value, read-out: TOX-HepG2.117 CC50 (μM, mean value)
Method: Cytotoxicity of the compounds was tested using HepG2 or HepG2.117 cells, incubated for 3 days in the presence of compounds. The viability of the cells was assessed using the PERKIN ELMER ATPlite Luminescence Assay System.”

SMILES | EC50 (HBV) [µM] | CC50 at 3 days [1] [µM]
C[C@@H]1Cc2nn3c(c2CN1C(=O)c1cc2c(F)c(F)ccc2[nH]1)C(=O)N(Cc1ccccn1)CC3 [Example C101] | 0.036 | 8.95
C[C@@H]1Cc2nn3c(c2CN1C(=O)c1cc2c(Cl)c(F)ccc2[nH]1)C(=O)N(Cc1ccccn1)CC3 [Example C102] | 0.019 | 7.14
CC(c1cncnc1)N1CCn2nc3c(c2C1=O)CN(C(=O)c1ccc(Cl)c(Cl)c1)[C@H](C)C3 (stereo partly shown) [Example C103] | 0.39 | > 50
C[C@@H]1Cc2nn3c(c2CN1C(=O)c1ccn2cc(C(F)(F)F)nc2c1)C(=O)N(Cc1ccccn1)CC3 [Example C104] | 0.632 | > 50
COc1ccc(CN2CCn3nc4c(c3C2=O)CN(C(=O)c2ccc(Cl)c(Cl)c2)[C@H](C)C4)cn1 [Example C106] | 0.031 | 33.8
Cc1c(F)ccc2[nH]c(C(=O)N3Cc4c(nn5c4C(=O)N(Cc4ccccn4)CC5)C[C@H]3C)cc12 [Example C107] | 0.015 | 13.2
C[C@@H]1Cc2nn3c(c2CN1C(=O)c1cc2c(F)ccc(F)c2[nH]1)C(=O)N(Cc1ccccn1)CC3 [Example C108] | 0.085 | 20
Cc1cc(F)cc2[nH]c(C(=O)N3Cc4c(nn5c4C(=O)N(Cc4ccccn4)CC5)C[C@H]3C)cc12 [Example C109] | 0.013 | 18.9
C[C@@H]1Cc2nn3c(c2CN1C(=O)c1cc2c(F)cc(F)cc2[nH]1)C(=O)N(Cc1ccccn1)CC3 [Example C110] | 0.017 | 16
Cc1cc(C(=O)N2Cc3c(nn4c3C(=O)N(Cc3ccccn3)CC4)C[C@H]2C)ccc1Cl [Example C111] | 0.086 | > 50
C[C@@H]1Cc2nn3c(c2CN1C(=O)c1ccc(Cl)c(C(F)(F)F)c1)C(=O)N(Cc1ccccn1)CC3 [Example C112] | 0.025 | > 50
C[C@@H]1Cc2nn3c(c2CN1C(=O)c1ccc(OC(F)F)c(Cl)c1)C(=O)N(Cc1ccccn1)CC3 [Example C113] | 0.257 | > 50
Cc1ccc(F)c2[nH]c(C(=O)N3Cc4c(nn5c4C(=O)N(Cc4ccccn4)CC5)C[C@H]3C)cc12 [Example C114] | 0.048 | 30.9
C[C@@H]1Cc2nn3c(c2CN1C(=O)c1ccc(C(F)(F)F)cc1)C(=O)N(Cc1ccccn1)CC3 [Example C115] | 0.265 | > 50
C[C@@H]1Cc2nn3c(c2CN1C(=O)c1cc2c(Cl)cc(F)cc2[nH]1)C(=O)N(Cc1ccccn1)CC3 [Example C116] | 0.015 | 12.4
C[C@@H]1Cc2nn3c(c2CN1C(=O)c1cc2c(Cl)ccc(F)c2[nH]1)C(=O)N(Cc1ccccn1)CC3 [Example C117] | 0.119 | 18.2
C[C@@H]1Cc2nn3c(c2CN1C(=O)c1cc2c(C(F)F)c(F)ccc2[nH]1)C(=O)N(Cc1ccccn1)CC3 [Example C124] | 0.011 | 26.7
C[C@@H]1Cc2nn3c(c2CN1C(=O)c1cc2c(C(F)(F)F)c(F)ccc2[nH]1)C(=O)N(Cc1ccccn1)CC3 [Example C125] | 0.037 | > 50
CC(c1ccc(OC(F)(F)F)cc1)N1CCn2nc3c(c2C1=O)CN(C(=O)c1ccc(Cl)c(Cl)c1)[C@H](C)C3 (stereo partly shown) [Example C127] | 0.133 | 15.7
CC(c1ccc(F)nc1)N1CCn2nc3c(c2C1=O)CN(C(=O)c1ccc(Cl)c(Cl)c1)[C@H](C)C3 (stereo partly shown) [Example C128] | 0.081 | > 50
CC(c1ccccc1C#N)N1CCn2nc3c(c2C1=O)CN(C(=O)c1ccc(Cl)c(Cl)c1)[C@H](C)C3 (stereo partly shown) [Example C129] | 0.143 | > 50
CC(c1ccc(Cl)nc1)N1CCn2nc3c(c2C1=O)CN(C(=O)c1ccc(Cl)c(Cl)c1)[C@H](C)C3 (stereo partly shown) [Example C130] | 0.082 | 33.7
COc1cccc(C(C)N2CCn3nc4c(c3C2=O)CN(C(=O)c2ccc(Cl)c(Cl)c2)[C@H](C)C4)c1 (stereo partly shown) [Example C131] | 0.038 | 19.6
C[C@@H]1Cc2nn3c(c2CN1C(=O)c1ccc(Cl)c(Cl)c1)C(=O)N(Cc1cncc(Cl)c1)CC3 [Example C132] | 0.061 | > 50

SMILES | EC50 (HBV) [µM] | CC50 at 3 days [1] [µM]
C[C@@H]1Cc2nn3c(c2CN1C(=O)c1ccc(Cl)c(Cl)c1)C(=O)N(Cc1nccn1C(F)F)CC3 [Example C133] | 0.332 | > 50
CCCn1c(C)nnc1CN1CCn2nc3c(c2C1=O)CN(C(=O)c1ccc(Cl)c(Cl)c1)[C@H](C)C3 [Example C134] | > 2.5 | > 50
C[C@@H]1Cc2nn3c(c2CN1C(=O)c1ccc(Cl)c(Cl)c1)C(=O)N(Cc1ccn(CC(F)(F)F)n1)CC3 [Example C135] | 0.1 | > 50
Cc1nnc(CN2CCn3nc4c(c3C2=O)CN(C(=O)c2ccc(Cl)c(Cl)c2)[C@H](C)C4)n1C [Example C136] | > 2.5 | > 50
CC(C)n1ccc(CN2CCn3nc4c(c3C2=O)CN(C(=O)c2ccc(Cl)c(Cl)c2)[C@H](C)C4)n1 [Example C137] | 0.056 | > 50
Cc1cnc(CN2CCn3nc4c(c3C2=O)CN(C(=O)c2ccc(Cl)c(Cl)c2)[C@H](C)C4)o1 [Example C138] | 0.061 | > 50
Cc1cncc(CN2CCn3nc4c(c3C2=O)CN(C(=O)c2ccc(Cl)c(Cl)c2)[C@H](C)C4)c1 [Example C139] | 0.04 | > 50
Cc1cc(CN2CCn3nc4c(c3C2=O)CN(C(=O)c2ccc(Cl)c(Cl)c2)[C@H](C)C4)no1 [Example C141] | 0.056 | > 50
Cc1noc(C)c1CN1CCn2nc3c(c2C1=O)CN(C(=O)c1ccc(Cl)c(Cl)c1)[C@H](C)C3 [Example C142] | 0.268 | > 50
C[C@@H]1Cc2nn3c(c2CN1C(=O)c1ccc(Cl)c(Cl)c1)C(=O)N(Cc1noc(C2CC2)n1)CC3 [Example C143] | 0.16 | > 50
C[C@@H]1Cc2nn3c(c2CN1C(=O)c1ccc(Cl)c(Cl)c1)C(=O)N(Cc1ncnn1C)CC3 [Example C144] | > 2.5 | > 50
Cc1cc(CN2CCn3nc4c(c3C2=O)CN(C(=O)c2ccc(Cl)c(Cl)c2)[C@H](C)C4)on1 [Example C145] | 0.106 | > 50
Cc1nonc1CN1CCn2nc3c(c2C1=O)CN(C(=O)c1ccc(Cl)c(Cl)c1)[C@H](C)C3 [Example C146] | 1.79 | > 50
C[C@@H]1Cc2nn3c(c2CN1C(=O)c1ccc(Cl)c(Cl)c1)C(=O)N(Cc1cnn(C)c1)CC3 [Example C147] | 0.054 | > 50
Cc1noc(CN2CCn3nc4c(c3C2=O)CN(C(=O)c2ccc(Cl)c(Cl)c2)[C@H](C)C4)n1 [Example C148] | 0.385 | > 50
Cc1nc(C)c(CN2CCn3nc4c(c3C2=O)CN(C(=O)c2ccc(Cl)c(Cl)c2)[C@H](C)C4)o1 [Example C149] | 0.059 | > 50
Cc1ncsc1CN1CCn2nc3c(c2C1=O)CN(C(=O)c1ccc(Cl)c(Cl)c1)[C@H](C)C3 [Example C150] | 0.075 | > 50
Cc1nc(CN2CCn3nc4c(c3C2=O)CN(C(=O)c2ccc(Cl)c(Cl)c2)[C@H](C)C4)no1 [Example C151] | 0.42 | > 50
Cc1cccnc1CN1CCn2nc3c(c2C1=O)CN(C(=O)c1ccc(Cl)c(Cl)c1)[C@H](C)C3 [Example C152] | 0.145 | > 50
C[C@@H]1Cc2nn3c(c2CN1C(=O)c1ccc(Cl)c(Cl)c1)C(=O)N(Cc1cncc(F)c1)CC3 [Example C153] | 0.082 | > 50
Cc1cc(F)ccc1CN1CCn2nc3c(c2C1=O)CN(C(=O)c1ccc(Cl)c(Cl)c1)[C@H](C)C3 [Example C154] | 0.071 | 9.53
C[C@@H]1Cc2nn3c(c2CN1C(=O)c1ccc(Cl)c(Cl)c1)C(=O)N(Cc1cn(C)nc1C(F)F)CC3 [Example C155] | 0.083 | > 50
Cc1nc(CN2CCn3nc4c(c3C2=O)CN(C(=O)c2ccc(Cl)c(Cl)c2)[C@H](C)C4)co1 [Example C156] | 0.174 | > 50
